Values joined by “and” are separate entries in the source; they are usually repeats but may differ in a detail not shown here. Identical values can stand only once. Toxic doses and inconclusive results are not listed.
Tested on: CD2F1 mice, L1210 leukemia ip, survival T/C
Test: NCI In Vivo Anticancer Drug Screen. Data for tumor model L1210 Leukemia (intraperitoneal) in CD2F1 (CDF1) mice
Conditions: higher = longer survival
How it was run: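 Activity against a transplanted murine tumor was judged by comparing the compound group with a vehicle group. The outcome in the treated animals was divided by that in the controls.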

`O=C1c2ccccc2C(=O)c2c(NCCNCCO)ccc(NCCNCCO)c21` was tested, and the T/C (endpoint: mean survival time, dose: 1.0 mg/kg/injection, schedule: Q01DX005 (iv), vehicle: clinical formulation) was 104 % of control, the T/C (endpoint: mean survival time, dose: 2.0 mg/kg/injection, schedule: Q01DX005 (iv), vehicle: saline) was 98 % of control and the T/C (endpoint: mean survival time, dose: 2.0 mg/kg/injection, schedule: Q01DX009 (ip), vehicle: saline) was 153 % of control. For the same compound, the T/C (endpoint: mean survival time, dose: 2.5 mg/kg/injection, schedule: Q01DX009 (ip), vehicle: saline) was 190 % of control, the T/C (endpoint: mean survival time, dose: 2.62 mg/kg/injection, schedule: Q01DX009 (ip), vehicle: saline) was 156 % of control and the T/C (endpoint: mean survival time, dose: 4.0 mg/kg/injection, schedule: Q01DX005 (iv), vehicle: clinical formulation) was 123 % of control. The T/C (endpoint: mean survival time, dose: 4.0 mg/kg/injection, schedule: Q01DX005 (oral), vehicle: acid diluted with saline) was 102 % of control, the T/C (endpoint: mean survival time, dose: 4.0 mg/kg/injection, schedule: Q01DX009 (ip), vehicle: clinical formulation) was 157 % of control and the T/C (endpoint: mean survival time, dose: 4.0 mg/kg/injection, schedule: Q01DX009 (ip), vehicle: saline) was 271 % of control. The T/C (endpoint: mean survival time, dose: 4.0 mg/kg/injection, schedule: Q04DX003 (ip), vehicle: water) was 284 % of control, the T/C (endpoint: mean survival time, dose: 5.0 mg/kg/injection, schedule: Q01DX009 (ip), vehicle: saline) was 156 % of control and 186 % of control and the T/C (endpoint: mean survival time, dose: 5.25 mg/kg/injection, schedule: Q01DX009 (ip), vehicle: saline) was 159 % of control. For the same compound, the T/C (endpoint: mean survival time, dose: 8.0 mg/kg/injection, schedule: Q01DX005 (iv), vehicle: clinical formulation) was 120 % of control, the T/C (endpoint: mean survival time, dose: 8.0 mg/kg/injection, schedule: Q01DX005 (iv), vehicle: saline) was 119 % of control and the T/C (endpoint: mean survival time, dose: 8.0 mg/kg/injection, schedule: Q01DX005 (oral), vehicle: acid diluted with saline) was 98 % of control. The T/C (endpoint: mean survival time, dose: 8.0 mg/kg/injection, schedule: Q01DX005 (oral), vehicle: saline) was 101 % of control, the T/C (endpoint: mean survival time, dose: 8.0 mg/kg/injection, schedule: Q01DX009 (ip), vehicle: clinical formulation) was 346 % of control and the T/C (endpoint: mean survival time, dose: 8.0 mg/kg/injection, schedule: Q01DX009 (ip), vehicle: saline) was 281 % of control. The T/C (endpoint: mean survival time, dose: 8.0 mg/kg/injection, schedule: Q01DX009 (ip), vehicle: water) was 163 % of control and 166 % of control, the T/C (endpoint: mean survival time, dose: 8.0 mg/kg/injection, schedule: Q04DX003 (ip), vehicle: water) was 261 % of control and the T/C (endpoint: mean survival time, dose: 10.0 mg/kg/injection, schedule: Q01DX009 (ip), vehicle: saline) was 218 % of control and 219 % of control. The T/C (endpoint: mean survival time, dose: 10.5 mg/kg/injection, schedule: Q01DX009 (ip), vehicle: saline) was 228 % of control, the T/C (endpoint: mean survival time, dose: 11.7 mg/kg/injection, schedule: Q01DX001 (iv), vehicle: saline) was 98 % of control and the T/C (endpoint: mean survival time, dose: 16.0 mg/kg/injection, schedule: Q01DX005 (ip), vehicle: saline) was 170 % of control. For the same compound, the T/C (endpoint: mean survival time, dose: 16.0 mg/kg/injection, schedule: Q01DX005 (iv), vehicle: clinical formulation) was 164 % of control, the T/C (endpoint: mean survival time, dose: 16.0 mg/kg/injection, schedule: Q01DX005 (oral), vehicle: saline) was 101 % of control and the T/C (endpoint: mean survival time, dose: 16.0 mg/kg/injection, schedule: Q01DX009 (ip), vehicle: clinical formulation) was 461 % of control. For the same compound, the T/C (endpoint: mean survival time, dose: 16.0 mg/kg/injection, schedule: Q01DX009 (ip), vehicle: saline) was 529 % of control, the T/C (endpoint: mean survival time, dose: 16.0 mg/kg/injection, schedule: Q01DX009 (ip), vehicle: water) was 153 % of control and 183 % of control and the T/C (endpoint: mean survival time, dose: 19.4 mg/kg/injection, schedule: Q01DX001 (iv), vehicle: saline) was 102 % of control. For the same compound, the T/C (endpoint: mean survival time, dose: 20.0 mg/kg/injection, schedule: Q01DX009 (ip), vehicle: saline) was 158 % of control and 219 % of control, the T/C (endpoint: mean survival time, dose: 32.0 mg/kg/injection, schedule: Q01DX005 (ip), vehicle: saline) was 263 % of control and the T/C (endpoint: mean survival time, dose: 32.0 mg/kg/injection, schedule: Q01DX005 (iv), vehicle: saline) was 150 % of control. The T/C (endpoint: mean survival time, dose: 32.0 mg/kg/injection, schedule: Q01DX005 (oral), vehicle: acid diluted with saline) was 98 % of control, the T/C (endpoint: mean survival time, dose: 32.0 mg/kg/injection, schedule: Q01DX005 (oral), vehicle: saline) was 103 % of control and the T/C (endpoint: mean survival time, dose: 32.0 mg/kg/injection, schedule: Q01DX009 (ip), vehicle: clinical formulation) was 96 % of control. The T/C (endpoint: mean survival time, dose: 32.0 mg/kg/injection, schedule: Q01DX009 (ip), vehicle: water) was 92 % of control, the T/C (endpoint: mean survival time, dose: 32.0 mg/kg/injection, schedule: Q04DX003 (ip), vehicle: saline) was 160 % of control and the T/C (endpoint: mean survival time, dose: 32.4 mg/kg/injection, schedule: Q01DX001 (ip), vehicle: saline) was 158 % of control and 160 % of control. The T/C (endpoint: mean survival time, dose: 32.4 mg/kg/injection, schedule: Q01DX001 (iv), vehicle: saline) was 117 % of control, the T/C (endpoint: mean survival time, dose: 40.0 mg/kg/injection, schedule: Q01DX009 (ip), vehicle: saline) was 91 % of control and 96 % of control and the T/C (endpoint: mean survival time, dose: 42.0 mg/kg/injection, schedule: Q01DX009 (ip), vehicle: saline) was 90 % of control. For the same compound, the T/C (endpoint: mean survival time, dose: 54.0 mg/kg/injection, schedule: Q01DX001 (ip), vehicle: saline) was 150 % of control and 160 % of control, the T/C (endpoint: mean survival time, dose: 64.0 mg/kg/injection, schedule: Q01DX005 (ip), vehicle: saline) was 89 % of control and the T/C (endpoint: mean survival time, dose: 64.0 mg/kg/injection, schedule: Q01DX005 (oral), vehicle: acid diluted with saline) was 92 % of control. For the same compound, the T/C (endpoint: mean survival time, dose: 64.0 mg/kg/injection, schedule: Q01DX009 (ip), vehicle: water) was 90 % of control, the T/C (endpoint: mean survival time, dose: 64.0 mg/kg/injection, schedule: Q04DX003 (ip), vehicle: saline) was 289 % of control and the T/C (endpoint: mean survival time, dose: 90.0 mg/kg/injection, schedule: Q01DX001 (ip), vehicle: saline) was 182 % of control. The T/C (endpoint: mean survival time, dose: 128.0 mg/kg/injection, schedule: Q01DX005 (oral), vehicle: acid diluted with saline) was 100 % of control, the T/C (endpoint: mean survival time, dose: 128.0 mg/kg/injection, schedule: Q04DX003 (ip), vehicle: saline) was 247 % of control and the T/C (endpoint: mean survival time, dose: 150.0 mg/kg/injection, schedule: Q01DX001 (ip), vehicle: saline) was 221 % of control and 98 % of control. For the same compound, the T/C (endpoint: median survival time, dose: 0.25 mg/kg/injection, schedule: Q01DX005 (iv), vehicle: clinical formulation) was 97 % of control, the T/C (endpoint: median survival time, dose: 0.25 mg/kg/injection, schedule: Q01DX005 (iv), vehicle: water) was 102 % of control and the T/C (endpoint: median survival time, dose: 0.25 mg/kg/injection, schedule: Q01DX009 (ip), vehicle: water) was 118 % of control. For the same compound, the T/C (endpoint: median survival time, dose: 0.5 mg/kg/injection, schedule: Q01DX005 (iv), vehicle: clinical formulation) was 97 % of control, the T/C (endpoint: median survival time, dose: 0.5 mg/kg/injection, schedule: Q01DX005 (iv), vehicle: water) was 98 % of control and the T/C (endpoint: median survival time, dose: 0.5 mg/kg/injection, schedule: Q01DX009 (ip), vehicle: clinical formulation) was 121 % of control. The T/C (endpoint: median survival time, dose: 1.0 mg/kg/injection, schedule: Q01DX005 (iv), vehicle: clinical formulation) was 102 % of control, the T/C (endpoint: median survival time, dose: 1.0 mg/kg/injection, schedule: Q01DX005 (iv), vehicle: water) was 97 % of control and the T/C (endpoint: median survival time, dose: 2.0 mg/kg/injection, schedule: Q01DX005 (iv), vehicle: clinical formulation) was 97 % of control. The T/C (endpoint: median survival time, dose: 2.0 mg/kg/injection, schedule: Q01DX005 (iv), vehicle: water) was 102 % of control, the T/C (endpoint: median survival time, dose: 2.0 mg/kg/injection, schedule: Q01DX009 (ip), vehicle: Klucel (hydroxypropylcellulose) (HPC)) was 151 % of control and the T/C (endpoint: median survival time, dose: 4.0 mg/kg/injection, schedule: Q01DX005 (iv), vehicle: clinical formulation) was 115 % of control. For the same compound, the T/C (endpoint: median survival time, dose: 4.0 mg/kg/injection, schedule: Q01DX009 (ip), vehicle: Klucel (hydroxypropylcellulose) (HPC)) was 197 % of control, the T/C (endpoint: median survival time, dose: 4.0 mg/kg/injection, schedule: Q01DX009 (ip), vehicle: clinical formulation) was 160 % of control and the T/C (endpoint: median survival time, dose: 4.0 mg/kg/injection, schedule: Q01DX009 (ip), vehicle: water) was 156 % of control. The T/C (endpoint: median survival time, dose: 4.0 mg/kg/injection, schedule: Q01DX009 (sc), vehicle: Klucel (hydroxypropylcellulose) (HPC)) was 120 % of control, the T/C (endpoint: median survival time, dose: 4.0 mg/kg/injection, schedule: Q01DX009 (sc), vehicle: water) was 112 % of control and the T/C (endpoint: median survival time, dose: 8.0 mg/kg/injection, schedule: Q01DX009 (ip), vehicle: Klucel (hydroxypropylcellulose) (HPC)) was 156 % of control and 182 % of control. The T/C (endpoint: median survival time, dose: 8.0 mg/kg/injection, schedule: Q01DX009 (ip), vehicle: clinical formulation) was 196 % of control, the T/C (endpoint: median survival time, dose: 8.0 mg/kg/injection, schedule: Q01DX009 (ip), vehicle: water) was 177 % of control and the T/C (endpoint: median survival time, dose: 16.0 mg/kg/injection, schedule: Q01DX005 (iv), vehicle: water) was 155 % of control. The T/C (endpoint: median survival time, dose: 16.0 mg/kg/injection, schedule: Q01DX005 (oral), vehicle: Klucel (hydroxypropylcellulose) (HPC)) was 104 % of control, the T/C (endpoint: median survival time, dose: 16.0 mg/kg/injection, schedule: Q01DX009 (ip), vehicle: Klucel (hydroxypropylcellulose) (HPC)) was 170 % of control and 188 % of control and the T/C (endpoint: median survival time, dose: 16.0 mg/kg/injection, schedule: Q01DX009 (ip), vehicle: clinical formulation) was 238 % of control. The T/C (endpoint: median survival time, dose: 16.0 mg/kg/injection, schedule: Q01DX009 (ip), vehicle: water) was 262 % of control, the T/C (endpoint: median survival time, dose: 16.0 mg/kg/injection, schedule: Q01DX009 (sc), vehicle: Klucel (hydroxypropylcellulose) (HPC)) was 174 % of control and the T/C (endpoint: median survival time, dose: 16.0 mg/kg/injection, schedule: Q01DX009 (sc), vehicle: water) was 164 % of control. The T/C (endpoint: median survival time, dose: 32.0 mg/kg/injection, schedule: Q01DX005 (iv), vehicle: clinical formulation) was 180 % of control, the T/C (endpoint: median survival time, dose: 32.0 mg/kg/injection, schedule: Q01DX005 (iv), vehicle: water) was 174 % of control and the T/C (endpoint: median survival time, dose: 32.0 mg/kg/injection, schedule: Q01DX005 (oral), vehicle: Klucel (hydroxypropylcellulose) (HPC)) was 104 % of control. For the same compound, the T/C (endpoint: median survival time, dose: 32.0 mg/kg/injection, schedule: Q01DX009 (ip), vehicle: Klucel (hydroxypropylcellulose) (HPC)) was 197 % of control and 365 % of control, the T/C (endpoint: median survival time, dose: 32.0 mg/kg/injection, schedule: Q01DX009 (ip), vehicle: clinical formulation) was 115 % of control and the T/C (endpoint: median survival time, dose: 32.0 mg/kg/injection, schedule: Q01DX009 (ip), vehicle: water) was 101 % of control. The T/C (endpoint: median survival time, dose: 32.0 mg/kg/injection, schedule: Q01DX009 (sc), vehicle: water) was 172 % of control, the T/C (endpoint: median survival time, dose: 64.0 mg/kg/injection, schedule: Q01DX009 (sc), vehicle: Klucel (hydroxypropylcellulose) (HPC)) was 96 % of control and the T/C (endpoint: median survival time, dose: 64.0 mg/kg/injection, schedule: Q01DX009 (sc), vehicle: water) was 101 % of control. For the same compound, the T/C (endpoint: median survival time, dose: 1024.0 mg/kg/injection, schedule: Q01DX005 (oral), vehicle: Klucel (hydroxypropylcellulose) (HPC)) was 91 % of control.

— PubChem BioAssay AID256 (DTP/NCI, 2004)
